According to paper PMC9551036, “A selective and orally bioavailable VHL-recruiting PROTAC achieves SMARCA2 degradation in vivo” (Nature Communications, 2022):
“And” between values parts separate entries of the source, which are not always exact repeats. Identical values can stand only once. Like-named read-outs stand apart in the source and are kept apart here.

What was measured:
SMARCA2^BD = target: T1, SMARCA2^BD (Homo sapiens, UniProt P51531); test: SPR binding to immobilised SMARCA2 bromodomain
T1 construct: P51531-2, residues 1373-1493 with additional N-terminal SM residues; GST (TEV site) (N, cleaved yes); made in house; host or cells: Escherichia coli BL21(DE3)
T1 sequence (P51531 1373-1493 isoform P51531-2): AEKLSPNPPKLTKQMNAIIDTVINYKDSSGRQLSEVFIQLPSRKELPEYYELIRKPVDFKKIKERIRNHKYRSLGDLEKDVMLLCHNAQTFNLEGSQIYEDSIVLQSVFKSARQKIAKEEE
Protocol: (§1) SMARCA4^BD was provided by the Structural Genomics Consortium (SGC), Toronto[32] and SMARCA2^BD and PRM1^BD5 were synthesised by GeneArt then subcloned into pDEST15 vectors (Invitrogen). The VCB complex was expressed and purified as described previously, with the modification that 0.3 mM IPTG was used for induction of expression. […] Both were stored in 20 mM 4-(2-hydroxyethyl)−1-piperazineethanesulfonic acid (HEPES), 150 mM sodium chloride and 1 mM tris(2-carboxyethyl)phosphine (TCEP) pH 7.5. SMARCA2^BD, SMARCA4^BD and PBRM1^BD5 were expressed in Escherichia coli BL21(DE3) as N-terminal GST fusion proteins with a TEV protease cleavage site. Expression and purification of these proteins has been described previously[32],[33]. Starter cultures were grown overnight at 37 °C in 10 mL of Luria-Bertani (LB) medium with ampicillin (100 μg/mL). The starter cultures were diluted (1:100) in Terrific Broth (TB) medium with ampicillin (100 μg/mL) and grown in a shaking incubator at 37 °C to an optical density (OD600) ~1 before the temperature was lowered for induction (to 23 °C for SMARCA2^BD or 18 °C for SMARCA4^BD and PRRM1^BD5). […] Cells were harvested by centrifugation and stored at −80 °C prior to purification. […] The Lysis buffers were as follows: for SMARCA2^BD: 50 mM HEPES, 500 mM sodium chloride, 5% glycerol, 5 mM dithiothreitol (DTT); for SMARCA4^BD: 25 mM HEPES, 0.3 M sodium chloride, 5% glycerol, 10 mM DTT, pH 7.5; for PBRM1^BD5: 25 mM HEPES, 300 mM sodium chloride, 5% glycerol, 10 mM DTT, pH 7.8; in each case supplemented with complete protease inhibitors (Roche). Affinity purification was performed using Glutathione Sepharose 4B (GE Healthcare) in batch mode or on-column. […] For SMARCA2^BD, prior to TEV protease cleavage the eluted GST-tagged BD was first dialysed into desalting buffer (20 mM HEPES, 250 mM sodium chloride, pH 7.0 + 0.5% glycerol). Where TEV cleavage was performed in solution, a second affinity (GST-trap) column purification step was carried out to remove the GST-tag and uncleaved GST-tagged protein. Proteins were further purified by SEC (HiLoad Superdex-75, 16/600) (GE Healthcare) and stored in Storage buffer (for SMARCA2^BD: 20 mM HEPES, 150 mM sodium chloride, pH 7.5; for SMARCA4^BD: 10 mM HEPES, 0.5 M NaCl, 5% glycerol, pH 7.5; for PBRM1^BD5: 20 mM HEPES, 300 mM NaCl, 5 mM DTT, pH 7.8). For AlphaScreen assays, eluted GST-tagged BDs were purified directly by SEC in the respective storage buffers without TEV cleavage. All chromatography purification steps were performed either at room temperature or 4 °C using an ÄKTA FPLC purification system (GE Healthcare) or a plastic Econo-Pac column (Bio-Rad).
(§2) SPR data were acquired on Biacore 8K or T200 instruments (Cytiva). Target proteins were immobilised at 25 °C on CM5 chips by amine coupling (EDC/NHS, Cytiva) in HBS-P+ running buffer (pH 7.4), containing 2 mM TCEP. […] The reference surface was subsequently deactivated using 1 M ethanolamine. […] Biotinylated VCB was prepared as previously described[27]: in brief, the complex was mixed 1:1 with EZ-Link NHS–PEG4–biotin (Thermo Scientific) and incubated at room temperature for 1 h. Unreacted NHS-biotin was removed using a PD-10 desalting column (Cytiva) into 20 mM HEPES, pH 7.5, 150 mM sodium chloride and 1 mM DTT. The reference surface was generated by deactivating the EDC/NHS-treated surface with 1 M ethanolamine. All interaction experiments were done at 6 °C in running buffer (20 mM TRIS, pH 8.3, 150 mM potassium chloride, 2 mM magnesium chloride, 2 mM TCEP, 0.005% TWEEN 20, 1% dimethyl sulfoxide). For ternary complex measurements, a sensor chip surface with VCB immobilised was used (preparation as described above). Experiments were run in dual-inject mode with 10 µM SMARCA present during the injection and dissociation phase. Sensorgrams from reference surfaces and blank injections were subtracted from the raw data prior to data analysis using Biacore Insight software.

VCB complex = target: T2, VCB complex (Homo sapiens, UniProt P40337); test: SPR binary binding to immobilised VCB complex
T2 construct: His6 (TEV site) (N, cleaved yes); made in house
T2 sequence (P40337 54-213): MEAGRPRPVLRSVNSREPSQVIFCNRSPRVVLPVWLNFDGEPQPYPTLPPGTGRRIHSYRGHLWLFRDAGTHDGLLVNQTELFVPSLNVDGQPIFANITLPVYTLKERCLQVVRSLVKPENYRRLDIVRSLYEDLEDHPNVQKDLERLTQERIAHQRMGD
T2 sequence (Q15369 17-112 partner limits assumed): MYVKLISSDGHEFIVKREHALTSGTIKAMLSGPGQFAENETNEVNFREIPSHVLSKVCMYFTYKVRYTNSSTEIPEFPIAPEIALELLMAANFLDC
T2 sequence (Q15370 1-104 partner limits assumed): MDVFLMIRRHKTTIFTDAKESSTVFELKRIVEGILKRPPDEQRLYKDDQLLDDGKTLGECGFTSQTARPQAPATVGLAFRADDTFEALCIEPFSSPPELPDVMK
Protocol: as §1, §2

[1] = target: VCB: PROTAC: SMARCA4^BD ternary complex (Homo sapiens, UniProt P40337+P51532); test: SPR ternary complex measurement, VCB immobilised, 10 µM SMARCA4^BD present; assay type: binding; parameters: P51532, residues 1448–1569 with additional N-terminal SM residues; His6 (TEV site) (N, cleaved yes); GST (TEV site) (N, cleaved yes); made in house; host or cells: SMARCA4^BD: Escherichia coli BL21(DE3); conditions: for Kd: SPR; for alpha: cooperativity, SMARCA4, ratio of KD values measured in the same run
Sequence of VCB: PROTAC: SMARCA4^BD ternary complex (P40337 54-213): as the sequence (P40337 54-213) above
Sequence of VCB: PROTAC: SMARCA4^BD ternary complex (Q15369 17-112 partner limits assumed): as the sequence (Q15369 17-112 partner limits assumed) above
Sequence of VCB: PROTAC: SMARCA4^BD ternary complex (Q15370 1-104 partner limits assumed): as the sequence (Q15370 1-104 partner limits assumed) above
Sequence of VCB: PROTAC: SMARCA4^BD ternary complex (P51532 1448-1569): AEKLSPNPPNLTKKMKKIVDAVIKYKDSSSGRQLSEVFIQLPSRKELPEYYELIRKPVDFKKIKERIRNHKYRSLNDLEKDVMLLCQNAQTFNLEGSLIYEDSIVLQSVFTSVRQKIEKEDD
Protocol: as §2, with “software. Affinity and binding kinetic parameters were determined by global fitting using the 1:1 interaction model with a term for mass-transport included.” for “software.”

[2] = SPR, SMARCA2BD, mean ± SD, read-out: SMARCA2 KD
[3] = SPR, individual replicates, read-out: SMARCA2 KD
[4] = binary binding to VCB, mean ± SD
[5] = ternary complex with SMARCA4BD, mean ± SD

Compound | Kd (SMARCA2^BD; [2]) [µM] | Kd (SMARCA2^BD; [3]) | Kd (VCB complex; [4]) [µM] | Kd (VCB complex; binary, individual replicates) | Kd [1, 5] [µM] | Kd ([1]; ternary, individual replicates) | alpha [1] | koff (SMARCA2^BD) [s⁻¹] | kon (SMARCA2^BD) [M⁻¹ s⁻¹] | Kd (SMARCA2^BD; read-out: SMARCA2^BD SPR KD) [µM]
Cc1ncsc1-c1ccc([C@H](COC(C)(C)CN2CCC(c3ccc4c(c3)n(C3CCCC3)c3nc(=O)c5c(Br)cccc5n43)CC2)NC(=O)[C@@H]2C[C@@H](O)CN2C(=O)[C@@H](NC(=O)C2(F)CC2)C(C)(C)C)cc1 [compound 28] | 0.196 ± 0.003 | 0.199 µM and 0.193 µM and 0.195 µM | 0.055 ± 0.029 | 0.0504 µM and 0.131 µM and 0.0471 µM and 0.0495 µM and 0.0396 µM and 0.0494 µM and 0.0398 µM and 0.0436 µM and 0.0449 µM | 0.073 ± 0.013 | 0.0634 µM and 0.0674 µM and 0.0869 µM | 0.8 |  |  | 
Cc1ncsc1-c1ccc([C@H](COC(C)CN2CCC(c3ccc4c(c3)n(C3CCCC3)c3nc(=O)c5c(Br)cccc5n43)CC2)NC(=O)[C@@H]2C[C@@H](O)CN2C(=O)[C@@H](NC(=O)C2(N(C)C)CC2)C(C)(C)C)cc1 (stereo partly drawn) [compound 10] | 0.222 ± 0.006 | 0.228 µM and 0.218 µM and 0.219 µM | 0.124 ± 0.097 | 0.0767 µM and 0.269 µM and 0.0654 µM and 0.086 µM | 0.172 ± 0.115 | 0.305 µM and 0.102 µM and 0.109 µM | 0.7 |  |  | 
Cc1ncsc1-c1ccc([C@H](COC(C)CN2CCC(c3ccc4c(c3)n(C3CCCC3)c3nc(=O)c5c(Br)cccc5n43)CC2)NC(=O)[C@@H]2C[C@@H](O)CN2C(=O)[C@@H](NC(=O)C2(F)CC2)C(C)(C)C)cc1 (stereo partly drawn) [compound 9] | 0.263 ± 0.009 | 0.26 µM and 0.273 µM and 0.257 µM | 0.034 ± 0.006 | 0.0399 µM and 0.0379 µM and 0.0304 µM and 0.0262 µM | 0.18 ± 0.013 | 0.171 µM and 0.174 µM and 0.195 µM | 0.2 |  |  | 
Cc1ncsc1-c1ccc([C@H](CCCCN2CCC(c3ccc4c(c3)n(C3CCCC3)c3nc(=O)c5c(Br)cccc5n43)CC2)NC(=O)[C@@H]2C[C@@H](O)CN2C(=O)[C@@H](NC(=O)C2(F)CC2)C(C)(C)C)cc1 [compound 25] | 0.093 ± 0.003 | 0.0954 µM and 0.0904 µM and 0.094 µM | 0.006 ± 0.001 | 0.00694 µM and 0.00643 µM and 0.0053 µM | 0.014 ± 0.002 | 0.0128 µM and 0.0133 µM and 0.0156 µM | 0.4 |  |  | 
Cc1ncsc1-c1ccc(C(CCC(C)CCN2CCC(c3ccc4c(c3)n(C3CCCC3)c3nc(=O)c5c(Br)cccc5n43)CC2)NC(=O)C2CC(O)CN2C(=O)C(NC(=O)C2(F)CC2)C(C)(C)C)cc1 (stereo not drawn) [ACBI2] | 0.208 ± 0.039 | 0.25 µM and 0.202 µM and 0.173 µM | 0.028 ± 0.035 |  | 0.024 ± 0.004 | 0.0219 µM and 0.0227 µM and 0.0284 µM | 1.4 |  |  | 
Cc1ncsc1-c1ccc([C@H](CCCCCN2CCC(c3ccc4c(c3)n(C3CCCC3)c3nc(=O)c5c(Br)cccc5n43)CC2)NC(=O)[C@@H]2C[C@@H](O)CN2C(=O)[C@@H](NC(=O)C2(F)CC2)C(C)(C)C)cc1 [compound 11] |  | 0.148 µM and 0.144 µM and 0.14 µM | 0.009 ± 0.003 | 0.0112 µM and 0.0114 µM and 0.00947 µM and 0.00794 µM and 0.00834 µM and 0.00719 µM and 0.00573 µM and 0.0119 µM and 0.00442 µM | 0.018 ± 0.002 | 0.0167 µM and 0.0163 µM and 0.0193 µM | 0.6 |  |  | 
O=c1nc2n(C3CCCC3)c3ccccc3n2c2cccc(Br)c12 [compound 1] | 1.06 ± 0.258 | 1.05 µM and 0.804 µM and 1.32 µM |  |  |  |  |  |  |  | 
Cc1ncsc1-c1ccc(CNC(=O)[C@@H]2C[C@@H](O)CN2C(=O)[C@@H](NC(=O)C2(F)CC2)C(C)(C)C)c(OCCCCN2CCC(c3ccc4c(c3)n(C3CCCC3)c3nc(=O)c5c(Br)cccc5n43)CC2)c1 [compound 23] | 0.094 ± 0.011 | 0.102 µM and 0.0813 µM and 0.0983 µM | 0.016 ± 0.008 | 0.0115 µM and 0.0281 µM and 0.0123 µM and 0.0109 µM | 0.084 ± 0.001 | 0.0843 µM and 0.0827 µM and 0.085 µM | 0.2 |  |  | 
Cc1ncsc1-c1ccc([C@H](CC[C@H](C)CCN2CCC(c3ccc4c(c3)n(C3CCCC3)c3nc(=O)c5c(Br)cccc5n43)CC2)NC(=O)[C@@H]2C[C@H](O)CN2C(=O)[C@@H](NC(=O)C2(F)CC2)C(C)(C)C)cc1 [compound 12] | 0.214 ± 0.015 | 0.202 µM and 0.231 µM and 0.209 µM | 0.629 ± 0.088 | 0.566 µM and 0.691 µM |  |  |  |  |  | 
CN1CCN(c2nc(=O)c3c(I)cccc3o2)CC1 [compound 16] | 17.9 ± 0.917 | 18.1 µM and 16.9 µM and 18.7 µM |  |  |  |  |  |  |  | 
CN1CCC(c2ccc3c(c2)n(C2CCCC2)c2nc(=O)c4c(Br)cccc4n32)CC1 [compound 3] | 0.046 ± 0.005 | 0.0722 µM and 0.083 µM and 0.0787 µM and 0.0507 µM and 0.0446 µM and 0.0415 µM |  |  |  |  |  | 0.09 ± 0.01 | 1.98e+06 ± 130000 | 0.046
CN1CCN(c2nc(=O)c3c(Cl)cccc3o2)CC1 [compound 13] | 24.5 ± 2.17 | 26.5 µM and 24.9 µM and 22.2 µM |  |  |  |  |  |  |  | 
Cc1ncsc1-c1ccc(CNC(=O)[C@@H]2C[C@H](O)CN2C(=O)[C@@H](NC(=O)C2(F)CC2)C(C)(C)C)c(OCCN2CCC(c3ccc4c(c3)n(C3CCCC3)c3nc(=O)c5c(Br)cccc5n43)CC2)c1 [compound 19] | 0.064 ± 0.004 | 0.0688 µM and 0.0629 µM and 0.0609 µM |  |  |  |  |  |  |  | 
Nc1cccc2c1c(=O)nc1n(C3CCCC3)c3ccccc3n21 [compound 2] | 1.16 ± 0.421 | 0.826 µM and 0.632 µM and 0.916 µM and 1.49 µM and 1.42 µM and 1.67 µM |  |  |  |  |  |  |  | 1.16
CN1CCN(c2nc(=O)c3c(Br)cccc3o2)CC1 [compound 15] | 9 ± 0.526 | 8.91 µM and 9.57 µM and 8.53 µM |  |  |  |  |  |  |  | 
